Each block holds one molecule with its values, some of them ahead of it.
Legend:
[1] = parameters: method as in PMID 26043236; conditions: pH 7.4; cited from earlier work
[2] = target: T1, P-gp (Homo sapiens, UniProt P08183); test: Calcein-AM inhibition assay in MDCKII-MDR1 cells; format: cell-based; conditions: non-radioactive compounds
T1 construct: host or cells: MDCKII (canine kidney) cells transfected with human MDR1 cDNA
Method: The calcein-AM experiment was performed in MDCKII-MDR1 cells according to methods described previously. Calcein cell accumulation in the absence and in the presence of test compounds (0,1, 1, 10, 30, 50 and 100 µM) was evaluated and the basal level of fluorescence was measured in untreated cells. EC50 values were determined by fitting the fluorescence increase (in %) versus log[dose].

[3] = after 5 min; cited from earlier work
[4] = target: T1, P-gp; test: Bidirectional transport of tritiated compounds in MDCKII-MDR1 cells; format: in vitro ADME; conditions: for Substrate In Vitro: ER 0.01 µM; for P-gp substrate behaviour in vitro: concentrations 0.01-50 µM and inhibitors; for ER 0.01 µM: tritiated compound 0.01 µM, Papp B→A/Papp A→B; for Recovery of radioactivity: all experiments, A → B and B → A directions
Method: (§1) Madin-Darby canine kidney (MDCK) II cells expressing cDNAs encoding human MDR1 (MDCKII-MDR1 cells) were obtained by TNO from the Netherlands Cancer Institute. […] Cells were counted using an automatic cell counter (Millipore, Bedford, MA, USA). […] The medium was refreshed after 48 h. It has been shown, that under these conditions the human transporter protein MDR1 localizes on the apical plasma membrane of the cells.
(§2) After three days of cell culture on Transwell, the MDCKII-MDR1 monolayers are expected to have developed a transepithelial electrical resistance (TEER) of approximately 70 Ωcm^2 higher than background (empty filter without cells). At the start of each study, TEER was measured to assess the integrity of the monolayers of MDCKII-MDR1 cells in culture medium using the Millicell-ERS epithelial voltohmmeter (Millipore). Monolayers with a TEER value less than 55 Ωcm^2 above background (empty filter) were excluded from the transport assay. […] Cell monolayers were also inspected with a microscope before starting the experiments.
(§3) Transcellular transport studies were performed as described previously with minor modifications.
(§4) After the integrity assessment, culture medium was removed from the filter inserts (apical compartment (A)). The inserts were washed once with warm (37 °C) HBSS, transferred to new 12-well plates which were preincubated with HBSS/HEPES for 18 h at 37 °C, to reduce non-specific binding to the plastic, and washed with warm HBSS. The MDR1-mediated apical to basolateral (A → B) transport in MDCKII-MDR1 cell monolayers was determined by addition of 0.65 mL of a tritiated compound in concentrations of 0.01, 1 and 50 µM to the apical compartment in triplicate. A volume of 1.8 mL of HBSS/HEPES was added to the basolateral compartment. To determine basolateral to apical (B → A) transport, 1.95 mL of a tritiated compound at concentrations of 0.01, 1 and 50 µM was added to the basolateral compartment and 0.5 ml of HBSS/HEPES to the apical compartment. A 150 µL aliquot of the apical (A → B) or basolateral (B → A) compartment was taken at the start of the experiment to measure the initial concentration and to calculate the recovery of radioactivity. […] Aliquots of the apical and basolateral samples (150 and 1600 µL for A → B and 400 and 150 µL for B → A, respectively) and samples of the initial concentration were mixed with 10 mL of liquid scintillant Ultima GoldTM (PerkinElmer Inc.). Radioactivity was determined by LSC on a Tri Carb 3100TR liquid scintillation counter using QuantaSmart^TM software (PerkinElmer Inc.) in which all counts were converted to disintegrations per minute (DPM) using tSIE/AEC (transformed spectral index of external standards coupled to automatic efficiency correction). Background values were measured for each sample sequence using liquid scintillant without test samples. Recovery of radioactivity was calculated as percentage of measured total radioactivity after the experiment versus initial radioactivity.
(§5) Subsequently, the effects of MDR1-inhibitors ketoconazole and tariquidar on the bidirectional transport of the tested tritiated compounds were examined. Stock solutions of the inhibitors ketoconazole (10 mM) and tariquidar (10 mM) were prepared in DMSO. […] These concentrations were based on IC50 values that are known to block P-gp completely.
(§6) A is the surface area of the filter insert (cm^2) and C0 the measured initial concentration, calculated from total DPM on the donor side at t = 0 min (DPM/L).
(§7) To determine the ER for the test compounds, the following equation was used:ER = Papp B → A/Papp A → B(2)

[5] = target: T2, P-gp (MDR1) (Homo sapiens, UniProt P08183); test: as above; format: in vitro ADME; conditions: MDCK-MDR1; for efflux ratio at 2 h, 1 µM / efflux ratio at 2 h, 50 µM: read-out: ER; for efflux ratio at 2 h, 0.01 µM: human, read-out: ER 0.01 µM
T2 construct: host or cells: MDCKII (canine kidney) cells transfected with human MDR1 cDNA
T2 sequence (P08183 whole entry): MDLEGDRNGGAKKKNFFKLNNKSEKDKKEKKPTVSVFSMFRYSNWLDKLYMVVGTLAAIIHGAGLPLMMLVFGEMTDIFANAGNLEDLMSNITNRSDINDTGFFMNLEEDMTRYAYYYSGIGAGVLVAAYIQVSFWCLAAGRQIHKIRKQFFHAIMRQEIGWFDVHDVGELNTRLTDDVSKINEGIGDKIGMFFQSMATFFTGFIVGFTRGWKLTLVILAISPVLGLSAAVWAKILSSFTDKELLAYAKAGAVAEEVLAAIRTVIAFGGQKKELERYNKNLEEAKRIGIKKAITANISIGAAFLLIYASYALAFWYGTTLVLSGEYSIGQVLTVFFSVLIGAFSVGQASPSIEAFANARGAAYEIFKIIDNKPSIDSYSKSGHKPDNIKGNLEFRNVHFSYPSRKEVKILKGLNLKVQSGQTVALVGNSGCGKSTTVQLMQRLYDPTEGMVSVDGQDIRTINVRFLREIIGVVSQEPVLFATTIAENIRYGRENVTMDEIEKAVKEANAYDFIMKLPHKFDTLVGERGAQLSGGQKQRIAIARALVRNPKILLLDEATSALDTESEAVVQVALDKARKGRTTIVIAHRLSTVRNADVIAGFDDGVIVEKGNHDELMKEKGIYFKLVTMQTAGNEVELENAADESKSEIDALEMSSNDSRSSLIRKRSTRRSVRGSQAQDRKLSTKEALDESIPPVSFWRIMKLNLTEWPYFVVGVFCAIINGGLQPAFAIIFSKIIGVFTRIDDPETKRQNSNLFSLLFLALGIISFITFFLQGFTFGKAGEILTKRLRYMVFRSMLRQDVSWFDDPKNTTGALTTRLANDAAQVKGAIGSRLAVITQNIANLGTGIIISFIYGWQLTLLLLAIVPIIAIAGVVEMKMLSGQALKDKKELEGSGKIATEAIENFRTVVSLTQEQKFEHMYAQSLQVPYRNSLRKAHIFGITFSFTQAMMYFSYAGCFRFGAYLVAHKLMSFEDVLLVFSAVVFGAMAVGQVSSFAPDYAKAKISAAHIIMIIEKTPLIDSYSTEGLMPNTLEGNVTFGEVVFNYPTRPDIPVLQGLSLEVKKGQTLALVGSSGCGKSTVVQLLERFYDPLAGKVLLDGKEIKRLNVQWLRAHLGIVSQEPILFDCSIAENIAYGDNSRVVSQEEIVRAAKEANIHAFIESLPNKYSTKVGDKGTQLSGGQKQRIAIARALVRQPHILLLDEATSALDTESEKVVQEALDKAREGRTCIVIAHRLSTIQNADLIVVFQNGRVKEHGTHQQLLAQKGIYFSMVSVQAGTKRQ
Method: as §1, §2, §3, §4, §5, §6, §7

[6] = test system: P-gp; test: In vivo P-gp substrate classification from knockout mice and/or tariquidar-treated rats; conditions: for Substrate In Vivo: brain-to-plasma or AUC ratio in at least one strain; for P-gp substrate classification in vivo: cutoff value of 2 for brain-to-plasma and AUC ratios
[7] = test system: T3, P-gp (human MDR1); test: Bidirectional transport of tritiated compounds in MDCKII-MDR1 cells; format: in vitro ADME; conditions: dog, MDCK-MDR1
T3 construct: host or cells: MDCKII (canine kidney) cells transfected with human MDR1 cDNA

[8] = Radioactive metabolites in plasma and brain by radio-TLC; format: in vivo; conditions: mice, 45 min p.i.
Method: Mice were injected with radiotracers (3.5 ± 1.6 MBq, 0.1 mL, [^18F]MC198 or [^18F]KE64) in the penile vein under isoflurane anesthesia. Injections were performed with the mice in the microPET camera (microPET Focus 220, Siemens Medical Solutions, Malvern, PA, USA), simultaneously starting a 30 min dynamic emission scan. After each emission scan, a transmission scan of 515 s with a ^57Co point source was performed to correct the emission data for attenuation and scatter. Mice were terminated by cervical dislocation. Several organs and tissues were excised, weighed and radioactivity was measured in a γ-counter (LKB Wallac, Turku, Finland). Radioactivity accumulation in the organs was expressed as SUV, using the following formula: [tissue activity concentration (MBq/g)]/[injected dose (MBq)/body weight (g)]. Metabolites in the terminal plasma and brain samples were determined using a radio-TLC method described elsewhere. TLC-plates were eluted with ethylacetate/methanol 9:1 v/v (Rf [^18F]MC198 = 0.45, Rf[^18F]KE64 = 0.62). PET data were reconstructed as described previously. Inveon Research Workplace software version 4.0 (Siemens, Erlangen, Germany) was used for data analysis. All frames were summed, and PET images were co-registered with an MRI template. […] Radioactivity concentrations were converted to SUV values and plotted as time-activity curves (TAC).

[9] = Log D7.4; format: physicochemical; conditions: pH 7.4, this study
[10] = test system: P-gp and/or Bcrp; test: Brain uptake (microPET, biodistribution) in Mdr1a/b(−/−)Bcrp1(−/−) knockout versus wild-type mice; format: in vivo; conditions: Mdr1a/b(−/−)Bcrp1(−/−) vs wild-type mice; for Difference in whole brain time-activity curves (SUV) between knockout and wild-type: AUC from 0 to 30 min; for P-gp substrate behaviour in vivo: tracer concentrations
From the text: All animal studies were in compliance with the local ethical guidelines. Protocols (DEC 6456C) were approved by the Institutional Animal Care and Use Committee of the University of Groningen. Male FVB wild type mice (33 ± 2 g, 11–12 weeks) and Mdr1a/b^(−/−)Bcrp1^(−/−) constitutive knockout mice (31 ± 3 g, 11–12 weeks) developed from the FVB line were purchased from Taconic (Hudson, NY, USA). After arrival, animals were housed individually and acclimatized for at least 7 days in the Central Animal Facility of the University Medical Center Groningen before experiments. Mice had access to food and water ad libitum and were kept under a 12 h light-dark cycle. During experiments, mice were anesthetized with 2% isoflurane in medical air and kept at a constant temperature using electronically controlled heating pads.
Mice were injected with radiotracers (3.5 ± 1.6 MBq, 0.1 mL, [^18F]MC198 or [^18F]KE64) in the penile vein under isoflurane anesthesia. Injections were performed with the mice in the microPET camera (microPET Focus 220, Siemens Medical Solutions, Malvern, PA, USA), simultaneously starting a 30 min dynamic emission scan. After each emission scan, a transmission scan of 515 s with a ^57Co point source was performed to correct the emission data for attenuation and scatter. Mice were terminated by cervical dislocation. Several organs and tissues were excised, weighed and radioactivity was measured in a γ-counter (LKB Wallac, Turku, Finland). Radioactivity accumulation in the organs was expressed as SUV, using the following formula: [tissue activity concentration (MBq/g)]/[injected dose (MBq)/body weight (g)]. Metabolites in the terminal plasma and brain samples were determined using a radio-TLC method described elsewhere. TLC-plates were eluted with ethylacetate/methanol 9:1 v/v (Rf [^18F]MC198 = 0.45, Rf[^18F]KE64 = 0.62). PET data were reconstructed as described previously. Inveon Research Workplace software version 4.0 (Siemens, Erlangen, Germany) was used for data analysis. All frames were summed, and PET images were co-registered with an MRI template. A whole brain volume of interest (VOI) based on the MRI template was generated. Radioactivity concentrations were converted to SUV values and plotted as time-activity curves (TAC).

T1 sequence (P08183 whole entry): as above

SMILES: COc1cc2c(cc1OC)CN(Cc1ccc(-c3ccc(OCCF)cc3)cc1)CC2 [MC224]
Log D7.4 [1]: 2.9

SMILES: COc1ccc([C@@](C#N)(CCCNCCc2ccc(OCCF)c(OC)c2)C(C)C)cc1OC [O-FeVer, (R)-O-[^18F]fluoroethylnorverapamil]
EC50 [2]: 2400 nM
Parent compound, of total activity in plasma [3]: 20%
ER after inhibition with ketoconazole ([4]; MDCKII-MDR1 cells, 0.01 µM + ketoconazole 25 µM): higher than 2
Substrate In Vitro ([4]; MDCKII-MDR1 cells): + (Definition as substrate (+) in vitro was ER > 2)
P-gp substrate behaviour in vitro ([4]; MDCKII-MDR1 cells): behaved like a P-gp substrate
ER 0.01 µM ([4]; MDCKII-MDR1 cells): > 30
Recovery of radioactivity [4]: ≥ 76%
Papp A→B at 2 h, 0.01 µM ([5]; dog, MDCKII-MDR1 cells, 0.01 µM): < 2 ×10⁻⁶ cm/s
Papp A→B at 2 h, 1 µM ([5]; dog, MDCKII-MDR1 cells, 1 µM): < 2 ×10⁻⁶ cm/s
efflux ratio at 2 h, 1 µM ([5]; dog, MDCKII-MDR1 cells, 1 µM): > 30
efflux ratio at 2 h, 50 µM ([5]; dog, MDCKII-MDR1 cells): > 2
efflux ratio at 2 h, 0.01 µM [5]: 37
Substrate In Vivo [6]: + (in vivo brain-to-plasma or AUC ratio > 2 in at least one strain)
Log D7.4 [1]: 1.6

SMILES: C[C@H]1O[C@@H](O[C@H]2[C@@H](O)C[C@H](O[C@H]3[C@@H](O)C[C@H](O[C@H]4CC[C@@]5(C)[C@H](CC[C@@H]6[C@@H]5C[C@@H](O)[C@]5(C)[C@@H](C7=CC(=O)OC7)CC[C@]65O)C4)O[C@@H]3C)O[C@@H]2C)C[C@H](O)[C@@H]1O [[^3H]Digoxin, digoxin]
Papp A→B at 2 h, 0.05 µM [7]: < 1 ×10⁻⁶ cm/s
Papp B→A at 2 h, 0.05 µM [7]: > 15 ×10⁻⁶ cm/s

SMILES: COc1ccc(CCN(CCF)CCC[C@](C#N)(c2ccc(OC)c(OC)c2)C(C)C)cc1OC [N-FeVer, (R)-N-[^18F]fluoroethylverapamil]
EC50 [2]: 1100 nM
Parent compound, of total activity in plasma [3]: 46%
Substrate In Vitro ([4]; MDCKII-MDR1 cells): + (Definition as substrate (+) in vitro was ER > 2)
Recovery of radioactivity [4]: ≥ 76%
efflux ratio at 2 h, 0.01 µM [5]: 2.8
Substrate In Vivo [6]: + (in vivo brain-to-plasma or AUC ratio > 2 in at least one strain)
Log D7.4 [1]: 2.0

SMILES: COc1cc2c(cc1OC)CN(CCCC1CCCc3c(OCCF)cccc31)CC2 (stereo not shown) [MC225]
Substrate In Vivo [6]: + (in vivo brain-to-plasma or AUC ratio > 2 in at least one strain)
Log D7.4 [1]: 3.0

Second part, led by results:

EC50 [2]: 270 nM
Fraction of intact parent compound in plasma [8]: 34%
logD [9]: 2.3
ER 0.01 µM ([4]; MDCKII-MDR1 cells): above 2
efflux ratio at 2 h, 1 µM ([5]; dog, MDCKII-MDR1 cells, 1 µM): < 2
efflux ratio at 2 h, 50 µM ([5]; dog, MDCKII-MDR1 cells): < 2
efflux ratio at 2 h, 0.01 µM [5]: 2.1
P-gp substrate classification in vivo [6]: weak substrates
Difference in whole brain time-activity curves (SUV) between knockout and wild-type [10]: 1.7 fold
P-gp substrate behaviour in vivo [10]: substrates for P-gp and/or Bcrp in vivo
SMILES: COc1cc2c(cc1OC)CN(CC/C=C1\CCCc3c(OCCF)cccc31)CC2 [MC198, (E)-2-(3-(5-(2-Fluoroethoxy)-3,4-dihydronaphthalen-1(2H)-ylidene)propyl)-6,7-dimethoxy-1,2,3,4-tetra-hydroisoquinoline]
Substrate In Vitro ([4]; MDCKII-MDR1 cells): + (Definition as substrate (+) in vitro was ER > 2)
P-gp substrate behaviour in vitro ([4]; MDCKII-MDR1 cells): some affinity but very low capacity for P-gp mediated transport
Substrate In Vivo [6]: + (in vivo brain-to-plasma or AUC ratio > 2 in at least one strain)

EC50 [2]: 14 nM
Fraction of intact parent compound in plasma [8]: 26%
logD [9]: 3.2
Papp values in both directions (A → B and B → A) ([4]; MDCKII-MDR1 cells, all Papp values): < 3 ×10⁻⁶ cm/s
efflux ratio at 2 h, 0.01 µM [5]: 1.9
P-gp substrate classification in vivo [6]: weak substrates
Difference in whole brain time-activity curves (SUV) between knockout and wild-type [10]: 1.6 fold
P-gp substrate behaviour in vivo [10]: moderate P-gp substrate in vivo
P-gp substrate behaviour in vivo ([10]; listed as [^18F]KE64): substrates for P-gp and/or Bcrp in vivo
SMILES: COc1cc2c(cc1OC)CN(CCCCOc1ccc(-c3ccc(OCCF)cc3)cc1)CC2 [KE64, 2-(4-(4′-(2-Fluoroethoxy)biphenyl-4-yloxy)butyl)-6,7-dimethoxy-1,2,3,4-tetrahydroisoquinoline]
Substrate In Vivo [6]: + (in vivo brain-to-plasma or AUC ratio > 2 in at least one strain)

— article PMC5620620, “Comparison of In Vitro Assays in Selecting Radiotracers for In Vivo P-Glycoprotein PET Imaging” (Pharmaceuticals, 2017)
